Assay results from patent US10011628B2, “Multivalent sialic acid derivatives” (priority 2013, dated 2018).
pIC50, pKd: −log10 of the molar value. Like-named read-outs stand apart in the source and are kept apart here.

Key:
[1] = system: HAdV-37 virions (infection of HCE cells); settings: cited from earlier work
HAdV-37 fiber knob = HAdV-37 fiber knob (Human adenovirus D37, UniProt Q64823); assay: Surface plasmon resonance (SPR), immobilized HAdV-37 fiber knobs; format: binding, human adenovirus HAdV-37; settings: for binding mode with HAdV-37 fiber knob: SPR
Method: Finally, ME0385, ME0386 and ME0322 were investigated in surface plasmon resonance (SPR) experiments and their respective binding affinities (Kds) for immobilized HAdV-37 fiber knobs were determined (see below for further details). […] It is also worth noting the influence of the HAdV-37 fiber knob construct on the Kd values.
The kinetic measurements were performed using a surface plasmon resonance BIAcore T100 instrument. HAdV-37 knob proteins were covalently coupled to a CMS sensorchip using the amine coupling kit (GE Healthcare), to a concentration of 14-15 ng/mm^2 (˜15000RU). Binding of the trivalent sialic acid conjugates ME0322, ME0385 and ME0386 to the immobilized knob was performed in 10 mM HEPES, 0.15 M NaCl and 0.05% P20 pH 7.4 (1×HBS-EP+, GE Healthcare). The concentrations of trivalent sialic acid used were 400, 200, 100, 50 (twice), 25, 12.5 (twice), 6.25, 3.125, 1.56 and 0.78 μM. The binding affinities (Kds) were calculated using Biacore T100 evaluation software.

[2] = system: HAdV-37 virions (attachment to HCE cells); settings: reported in the art (background), cited from earlier work
[3] = system: HAdV-37 virions (infection of HCE cells); assay: Infection assay: infection of HCE cells by HAdV-37 virions (immunofluorescence); format: cell-based; settings: for pIC50: Human adenovirus sp., HCE, 44 h of infection, immunofluorescence, read-out: IC50, preventing infection of HCE cells by HAdV-37 virions; for prevention of infection of HCE cells by HAdV-37 virions compared with ME0322: in words
Method: In order to confirm the results from the cell-binding assays and to further evaluate our set of compounds, infection experiments were performed (FIGS. 1b, 3a and 3b). The assays were carried out (see below for further details) essentially as previously described ((Arnberg et al. J. Virol. 2000, 74, 42 and Arnberg et al. J. Virol. 2000, 74, 7691)).
In brief, unlabeled virions were pre-incubated with or without the trivalent sialic acid derivatives, GD1a glycan or sialic acid at various concentrations. These mixtures were then added to HCE cells and incubated at +4° C. Unbound virions were washed away, the resulting mixtures were incubated at +37° C. and a synchronized infection—all virions enter the cells simultaneously—was then obtained. After 44 h of infection, the cells were rinsed, fixed, incubated with rabbit polyclonal anti-HAdV-37 antibodies prior to being washed and stained. Finally, the cells were washed and examined by immunofluorescence microscopy.
7×10^7 non-labeled virions/well in 48-well plates were pre-incubated in serum free growth media (2004), with or without the trivalent sialic acid derivatives, GD1a glycan or sialic acid at various concentrations (cf. FIG. 2B) at +4° C. After 1 h, the mixtures were transferred to new 48-well plates containing 1×10^5 adherent HCE cells/well and incubated at +4° C. After 1 h, unbound virions were washed away with serum free growth media and the resulting mixtures were incubated with growth media containing 1% fetal bovine serum (FBS) at +37° C. After 44 h of infection, the cells were rinsed in PBS, fixed with cold (−20° C.) 99% methanol for 10 min and incubated with rabbit polyclonal anti-HAdV-37 antibodies diluted 1:200 in PBS (pH 7.4) at room temperature. After 1 h, the cells were washed in PBS and stained with FITC-labeled swine anti-rabbit IgG antibodies (Dako-cytomation, Glostrup, Denmark) diluted 1:100 in PBS for 1 h at room temperature. Finally, the cells were washed in PBS and examined in an immunofluorescence microscope (Axiovert 25, Carl Zeiss, Germany; 10× magnification).

[4] = system: HAdV-37 virions (attachment to HCE cells); assay: Cell-binding assay: attachment of 35S-labeled HAdV-37 virions to HCE cells; format: cell-based; settings: read-out: IC50, preventing attachment of HAdV-37 virions to HCE cells
Method: In order to investigate the efficiency of the newly synthesized compounds (ME0385, ME0386, ME0407, ME0408, ME0461, and ME0462) to prevent the attachment of HAdV-37 virions to HCE cells, cell-binding assays based on ^35S-labeled virions were performed. Based on previous studies ME0322, sialic acid and GD1a glycan were used as reference compounds (Nilsson et al N. Nat. Med. 2011, 17, 105 and Spjut et al Angew. Chem. Int. Ed. 2011, 50, 6519). The assays were carried out (see below for further details) essentially as previously described (Arnberg et al J. Virol. 2000, 74, 42 and Arnberg et al J. Virol. 2000, 74, 7691).
In brief, ^35S-labeled HAdV-37 virions were pre-incubated with or without the trivalent sialic acid derivatives, GD1a glycan and sialic acid at various concentrations. The mixtures were incubated with HCE cells and unbound virions were then washed away. Finally, the cell-associated radioactivity was counted by using a scintillation counter.
S-labeled HAdV-37 virions (5×10^8/well) were pre-incubated in binding buffer (50 μL; BB: Dulbecco's modified eagle's medium containing 1% BSA (Roche AB, Stockholm, Sweden) and HEPES (20 mM, EuroClone, Milan, Italy), pH 7.5) with or without the trivalent sialic acid derivatives, GD1a glycan or sialic acid at various concentrations (cf. FIG. 1a) in a 96-well microplate at +4° C. for 1 h. These mixtures were then added to HCE cells prepelleted (1×10^5/well) in a 96-well microplate. After re-suspension, the mixtures were incubated at +4° C. for 1 h. Finally, unbound virions were washed away with BB and the cell-associated radioactivity was counted by using a Wallac 1409 scintillation counter.

[5] = 35S-labeled virions pre-incubated with compound, +4° C., HCE cells

Row | Compound | binding mode with HAdV-37 fiber knob (HAdV-37 fiber knob) | pIC50 [3] | pKd (HAdV-37 fiber knob) | pIC50 ([4]; Human adenovirus sp., HCE) | pIC50 [4, 5] | other results
1 | CC(=O)NC1C(O)CC(OCCCCCNc2c(NCCN(CCNc3c(NCCCCCOC4(C(=O)O)CC(O)C(NC(C)=O)C(C(O)C(O)CO)O4)c(=O)c3=O)CCNc3c(NCCCCCOC4(C(=O)O)CC(O)C(NC(C)=O)C(C(O)C(O)CO)O4)c(=O)c3=O)c(=O)c2=O)(C(=O)O)OC1C(O)C(O)CO (centres unmarked) [ME0322] | one-to-one binding mode |  |  |  |  | pIC50 ([1]; infection of HCE cells by HAdV-37, earlier estimate, read-out: half maximal inhibitory concentration, previously estimated): 6.42; inhibiting infection of HCE cells by HAdV-37, compared with HSA-conjugate ([1]; reported in the art (background)): far more potent than the HSA-conjugate; pKd (HAdV-37 fiber knob; read-out: binding affinity (Kd) for immobilized HAdV-37 fiber knobs, BIAcore T100, HBS-EP+ pH 7.4): 3.90; potency compared with natural sialic acid monosaccharide ([2]; assay not specified): four orders of magnitude more potent than the natural sialic acid monosaccharide; preventing binding of the virus, compared with 17-valent sialic acid-HSA conjugate [2]: as effective as 17-valent sialic acid-HSA conjugate
2 | CC(=O)NC1C(O)CC(OCCn2cc(CN(Cc3cn(CCOC4(C(=O)O)CC(O)C(NC(C)=O)C(C(O)C(O)CO)O4)nn3)Cc3cn(CCOC4(C(=O)O)CC(O)C(NC(C)=O)C(C(O)C(O)CO)O4)nn3)nn2)(C(=O)O)OC1C(O)C(O)CO [ME0385, Tris ((1-(2-O-(5-N-acetamido-3,5-dideoxy-D-glycero-α-D-galacto-2-nonylopyranosylonic acid))-2-oxoethyl-1H-1,2,3-triazol-4-yl)methyl)amine] | one-to-one binding mode | 6.78 | 4.12 | 6.97 |  | 
3 | CC(=O)N[C@@H]1C(O)C[C@](OCCCn2cc(CN(Cc3cn(CCCO[C@@]4(C(=O)O)CC(O)[C@H](NC(C)=O)C(C(O)C(O)CO)O4)nn3)Cc3cn(CCCO[C@]4(C(=O)O)CC(O)[C@@H](NC(C)=O)C(C(O)C(O)CO)O4)nn3)nn2)(C(=O)O)OC1C(O)C(O)CO (stereo partly drawn) [ME0386, Tris ((1-(2-O-(5-N-acetamido-3,5-dideoxy-D-glycero-α-D-galacto-2-nonylopyranosylonic acid))-3-oxopropyl-1H-1,2,3-triazol-4-yl)methyl)amine] | one-to-one binding mode | 6.93 | 4.16 | 7.40 |  | 
4 | CCC(=O)N[C@H]1[C@H]([C@H](O)[C@H](O)CO)O[C@@](OCCCn2cc(CN(Cc3cn(CCCO[C@]4(C(=O)O)C[C@H](O)[C@@H](NC(=O)CC)[C@H]([C@H](O)[C@H](O)CO)O4)nn3)Cc3cn(CCCO[C@]4(C(=O)O)C[C@H](O)[C@@H](NC(=O)CC)[C@H]([C@H](O)[C@H](O)CO)O4)nn3)nn2)(C(=O)O)C[C@@H]1O [ME0407] |  |  |  |  | 4.63 | 
5 | CC(=O)N[C@@H]1C(O)C[C@](OCc2cn(CCN(CCn3cc(CO[C@]4(C(=O)O)CC(O)[C@@H](NC(C)=O)C(C(O)C(O)CO)O4)nn3)CCn3cc(CO[C@]4(C(=O)O)CC(O)[C@@H](NC(C)=O)C(CO)(C(O)CO)O4)nn3)nn2)(C(=O)O)OC1C(O)C(O)CO (stereo partly drawn) [ME0462, Tris ((4-(2-O-(5-N-acetamido-3,5-dideoxy-D-glycero-α-D-galacto-2-nonulopyranosylonic acid))-2-oxomethyl-1H-1,2,3-triazol-1-yl)ethyl)amine] |  | 8.68 | 5.02 | 8.85 |  | prevention of infection of HCE cells by HAdV-37 virions compared with ME0322 [3]: more efficiently than ME0322
6 | CC(=O)N[C@H]1[C@H]([C@H](O)[C@H](O)CO)OC(O)(C(=O)O)C[C@@H]1O (some centres unmarked) [sialic acid] |  |  |  | 2.92 |  | 
7 | Tris ((1-(2-O-(5-N-propanoylamido-3,5-dideoxy-D-glycero-α-D-galacto-2-nonylopyranosylonic acid))-2-oxoethyl-1H-1,2,3-triazol-4-yl)methyl)amine [ME0408] |  |  |  |  | 5.35 | 
8 | Tris ((4-(2-O-(5-N-acetamido-3,5-dideoxy-D-glycero-α-D-galacto-2-nonulopyranosylonic acid))-2-oxoethyl-1H-1,2,3-triazol-1-yl)ethyl)amine [ME0461] |  |  |  |  | 6.42 | prevention of infection of HCE cells by HAdV-37 virions compared with ME0322 [3]: more efficiently than ME0322
